Reference: patent US6969730B2, “Amines as histamine-3 receptor ligands and their therapeutic applications” (Abbott Laboratories, priority 2001, dated 2005)

Molecular target: T1, histamine-3 receptors (H3 receptor) (Rattus norvegicus, UniProt Q9QYN8)
T1 construct: from tissue; host or cells: male Sprague-Dawley rat brain cortex membranes
Assay: (3H)-N-α-methylhistamine binding to rat cortical membranes (histamine-3 receptor ligands)
Conditions: male Sprague-Dawley rat brain cortical membranes; (3H)-N-α-methylhistamine ~0.6 nM; 30 minutes at 25° C.; Cheng-Prusoff
Description: Briefly, male Sprague-Dawley rat brain cortices were homogenized (1 g tissue/10 mL buffer) in 50 mM Tris-HCl/5 mM EDTA containing protease inhibitor cocktail (Calbiochem) using a polytron set at 20,500 rpm. Homogenates were centrifuged for 20 minutes at 40,000×g. The supernatant was decanted, and pellets were weighed. The pellet was resuspended by polytron homogenization in 40 mL 50 mM Tris-HCl/5 mM EDTA with protease inhibitors and centrifuged for 20 minutes at 40,000×g. […] Rat cortical membranes (12 mg wet weight/tube) were incubated with (^3H)-N-α-methylhistamine (˜0.6 nM) with or without H3 receptor antagonists in a total incubation volume of 0.5 mL of 50 mM Tris-HCl/5 mM EDTA (pH 7.7). Test compounds were dissolved in DSMO to provide a 20 mM solution, serially diluted and then added to the incubation mixture prior to initiating the incubation assay by addition of the membranes. Thioperamide (3 μM) was used to determine nonspecific binding. Binding incubations were conducted for 30 minutes at 25° C. and terminated by addition of 2 mL of ice cold 50 mM Tris-HCl (pH 7.7) and filtration through 0.3% polyethylenimine-soaked Unifilter plates (Packard). These filters were washed 4 additional times with 2 mL of ice-cold 50 mM Tris-HCl and dried for 1 hour. Radioactivity was determined using liquid scintillation counting techniques. Results were analyzed by Hill transformation and Ki values were determined using the Cheng-Prusoff equation.

T1 sequence (Q9QYN8 whole entry): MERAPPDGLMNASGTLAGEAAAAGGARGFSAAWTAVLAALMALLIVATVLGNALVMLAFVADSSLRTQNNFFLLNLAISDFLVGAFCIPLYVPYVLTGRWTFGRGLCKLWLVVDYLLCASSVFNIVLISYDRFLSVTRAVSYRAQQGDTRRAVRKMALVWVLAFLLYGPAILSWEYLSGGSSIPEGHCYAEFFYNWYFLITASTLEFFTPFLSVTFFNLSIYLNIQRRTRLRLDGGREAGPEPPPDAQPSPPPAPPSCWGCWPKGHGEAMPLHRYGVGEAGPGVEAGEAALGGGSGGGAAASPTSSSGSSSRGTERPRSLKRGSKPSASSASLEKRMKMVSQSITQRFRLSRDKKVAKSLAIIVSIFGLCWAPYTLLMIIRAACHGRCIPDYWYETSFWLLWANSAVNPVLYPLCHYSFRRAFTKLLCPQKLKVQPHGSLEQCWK

Point of comparison: `C[C@@H]1CCCN1CCc1cc2c(-c3ccc(C#N)cc3)cccc2o1` [Example 85, 4-(2-{2-[(2R)-2-methyl-1-pyrrolidinyl]ethyl}-1-benzofuran-4-yl)benzonitrile], Ki 42 nM. Against it:
- 3-{[3-(2-{2-[(2R)-2-methylpyrrolidin-1-yl]ethyl}-1-benzofuran-5-yl)-1,2,4-oxadiazol-5-yl]methyl}benzonitrile [Example 93] — 7-fold lower, 6 nM
- 4-(2-{2-[-2,6-dimethylpiperidinyl]ethyl}-1-benzofuran-5-yl)benzonitrile [Example 11] — 2.2-fold lower, 19.3 nM
- 4-(6-methyl-2-{2-[(2R)-2-methyl-1-pyrrolidinyl]ethyl}-1-benzofuran-5-yl)benzonitrile and 4-(4-methyl-2-{2-[(2R)-2-methyl-1-pyrrolidinyl]ethyl}-1-benzofuran-5-yl)benzonitrile [Example 108] — 5.2-fold lower, 8 nM
- 4-[4-(2-{2-[-2,6-dimethylpiperidinyl]ethyl}-1-benzofuran-5-yl)benzoyl]morpholine [Example 29] — 5-fold lower, 8.46 nM
- N#Cc1ccc(-c2ccc3oc(CCN4CCCC4)cc3c2)cc1 [Example 2, 4-{2-[2-(1-pyrrolidinyl)ethyl]-1-benzofuran-5-yl}benzonitrile] — within 1.5-fold, 46.8 nM
- N#Cc1ccc(-c2ccc3oc(CCN4CCCCC4)cc3c2)cc1 [Example 4, 4-{2-[2-(1-piperidinyl)ethyl]-1-benzofuran-5-yl}benzonitrile] — within 1.5-fold, 58.8 nM
- CC1CCCCN1CCc1cc2cc(-c3ccc(C#N)cc3)ccc2o1 (stereo not drawn) [Example 6, 4-{2-[2-(2-methyl-1-piperidinyl)ethyl]-1-benzofuran-5-yl}benzonitrile] — within 1.5-fold, 44.9 nM
- COC(=O)[C@@H]1CCCN1CCc1cc2cc(-c3ccc(C#N)cc3)ccc2o1 [Example 15, 4-(2-{2-[2-pyrrolidinemethyl carboxylate]ethyl}-1-benzofuran-5-yl)benzonitrile] — higher, ≥ 1000 nM
- O=C(c1ccc(-c2ccc3oc(CCN4CCC[C@H]4CO)cc3c2)cc1)N1CCOCC1 [Example 34] — 6.1-fold lower, 6.89 nM
- C[C@@H]1CCC[C@H](C)N1CCc1cc2cc(-c3ccc(C(=O)N4CCOCC4)cn3)ccc2o1 [Example 50, 4-{[6-(2-{2-[-2,6-dimethylpiperidinyl]ethyl}-1-benzofuran-5-yl)-3-pyridinyl]carbonyl}morpholine] — within 1.5-fold, 37.1 nM
- O=C(c1ccc(-c2ccc3oc(CCN4CCC5(CC4)OCCO5)cc3c2)nc1)N1CCOCC1 [Example 60, 8-(2-{5-[5-(4-morpholinylcarbonyl)-2-pyridinyl]-1-benzofuran-2-yl}ethyl)-1,4-dioxa-8-azaspiro[4.5]decane] — higher, ≥ 1000 nM
- C=CCNCCc1cc2cc(-c3ccc(C(=O)N4CCOCC4)cn3)ccc2o1 [Example 63, N-allyl-N-(2-{5-[5-(4-morpholinylcarbonyl)-2-pyridinyl]-1-benzofuran-2-yl}ethyl)amine] — higher, ≥ 1000 nM
- O=C(c1ccc(-c2ccc3oc(CCNCCCO)cc3c2)nc1)N1CCOCC1 [Example 64, 3-[(2-{5-[5-(4-morpholinylcarbonyl)-2-pyridinyl]-1-benzofuran-2-yl}ethyl)amino]-1-propanol] — higher, ≥ 1000 nM
- C[C@@H]1CCCN1CCc1cc2ccc(-c3ccc(C#N)cc3)cc2o1 [Example 86, 4-(2-{2-[(2R)-2-methyl-1-pyrrolidinyl]ethyl}-1-benzofuran-6-yl)benzonitrile] — 12-fold lower, 3.5 nM
- C[C@@H]1CCCN1CCc1cc2cc(-c3noc(Cc4cccs4)n3)ccc2o1 [Example 87, 3-(2-{2-[(2R)-2-methylpyrrolidin-1-yl]ethyl}-1-benzofuran-5-yl)-5-(thien-2-ylmethyl)-1,2,4-oxadiazole] — 2.6-fold lower, 16 nM
- C[C@@H]1CCCN1CCc1cc2cc(-c3noc(-c4ccc(C#N)cc4)n3)ccc2o1 [Example 88, 4-[3-(2-{2-[(2R)-2-methylpyrrolidin-1-yl]ethyl}-1-benzofuran-5-yl)-1,2,4-oxadiazol-5-yl]benzonitrile] — 1.5-fold higher, 64 nM
- C[C@@H]1CCCN1CCc1cc2cc(-c3noc(-c4ccc(Cl)cc4)n3)ccc2o1 [Example 89, 5-(4-chlorophenyl)-3-(2-{2-[(2R)-2-methylpyrrolidin-1-yl]ethyl}-1-benzofuran-5-yl)-1,2,4-oxadiazole] — 3.5-fold lower, 12 nM
